Data reported in patent publication US11419806B2, “Prebiotic oral care methods using a saccharide” (Colgate-Palmolive Company, priority 2013, dated 2022).

Key:
Test in all cases: Twenty-four hour optical density growth in BHI
Format in all cases: cell-based
[1] = test system: Fusobacterium nucleatum; conditions: F nucleatum
Procedure: (§1) The extent of growth of the tested bacteria in response to selected saccharides (myo-inositol, D-lactitol, D-turanose and N-acetyl-D-mannosamine) was investigated by setting up growth curves in a nutritionally rich medium (brain heart infusion broth (BHI), Oxoid), over 24 hours. Late exponential growth phase liquid cultures were prepared by transferring the respective bacterium from blood agar plates to BHI and overnight incubation at 37° C. in an anaerobic atmosphere for A. viscosus, V. parvula, F. nucleatum, P. gingivalis, P. intermedia, T. forsythia, A. naeslundii, and C. sputigena, and in a 5% CO2 environment for S. salivarius, S. sanguinis, S. mitis, A. actinomycetemcomitans, S. mutans, S. sobrinus and S. gordonii. Overnight cultures were transferred to BHI and adjusted to a concentration of 1×10^7 CFU/ml (colony forming units per ml) by measuring the optical density at 600 nm (OD600) (BioRad SmartSpec 3000). For each strain, 200 μl of the bacterial suspension was added to a 96-well plate containing 20 μl of the respective saccharides. Final concentrations of the saccharides were set to 5, 10, 20 and 25 μmol/ml. […] Plates were incubated as previously described.
(§2) For each combination of bacterium/saccharide, and for each of their respective controls (i.e. the particular bacterium in the nutritionally rich medium with no saccharide), the optical density was measured at 630 nm (OD630) at 0 h and 24 h (Thermo Scientific Multiskan Ascent). Additionally, the OD630 for combinations of bacterium/saccharides grown in a 5% CO2 environment were also measured every hour between 0 h and 9 h.
(§3) The experiment was carried out on three different days (thus providing 3 biological replicas) and on each day the experiment was carried out in quadruple (thus providing 4 technical replicas) for each combination of bacterium with saccharide and for each control. For each day and for each combination, the average (mean) of the values obtained (as detailed above) for the four technical replicas was calculated to provide a single value for each combination on each day. The values shown in Tables 5a,b to 6a,b, below, are the average (mean) of the three single values obtained for each combination of bacterium with saccharide.

[2] = test system: Aggregatibacter actinomycetemcomitans; conditions: A actinomycetemcomitans
Procedure: as §1, §2, §3

[3] = test system: Prevotella intermedia; conditions: P intermedia
Procedure: as §1, §2, §3

[4] = test system: Streptococcus mitis; conditions: S mitis
Procedure: as §1, §2, §3

[5] = test system: Actinomyces viscosus; conditions: A viscosus
Procedure: as §1, §2, §3

[6] = test system: Streptococcus gordonii; conditions: S gordonii
Procedure: as §1, §2, §3

[7] = test system: Capnocytophaga sputigena; conditions: C sputigena
Procedure: as §1, §2, §3

[8] = test system: Porphyromonas gingivalis; conditions: P gingivalis
Procedure: as §1, §2, §3

[9] = test system: Veillonella parvula; conditions: V parvula
Procedure: as §1, §2, §3

[10] = test system: Streptococcus salivarius; conditions: S salivarius
Procedure: as §1, §2, §3

[11] = test system: Tannerella forsythia; conditions: T forsythia
Procedure: as §1, §2, §3

[12] = test system: Streptococcus mutans; conditions: S mutans
Procedure: as §1, §2, §3

[13] = test system: Actinomyces naeslundii; conditions: A naeslundii
Procedure: as §1, §2, §3

[14] = test system: Streptococcus sobrinus; conditions: S sobrinus
Procedure: as §1, §2, §3

[15] = test system: S. sanguinis
Procedure: as §1, §2, §3

OC[C@H]1O[C@@](O)(CO)[C@@H](O[C@H]2O[C@H](CO)[C@@H](O)[C@H](O)[C@H]2O)[C@@H]1O [D-Turanose, α-D-glucopyranosyl-(1→3)-α-D-fructofuranose]
extent of growth: maximal OD630 over 24 hr divided by maximal OD of control (control = 1) ([1]; 5 μmol/ml): 0.9458 | extent of growth: maximal OD630 over 24 hr divided by maximal OD of control (control = 1) ([1]; 10 μmol/ml): 0.9456 | extent of growth: maximal OD630 over 24 hr divided by maximal OD of control (control = 1) ([1]; 20 μmol/ml): 0.9285 | extent of growth: maximal OD630 over 24 hr divided by maximal OD of control (control = 1) ([1]; 25 μmol/ml): 0.9348 | extent of growth: maximal OD630 over 24 hr divided by maximal OD of control (control = 1) ([2]; 5 μmol/ml): 0.7962 | extent of growth: maximal OD630 over 24 hr divided by maximal OD of control (control = 1) ([2]; 10 μmol/ml): 0.8318 | extent of growth: maximal OD630 over 24 hr divided by maximal OD of control (control = 1) ([2]; 20 μmol/ml): 0.8672 | extent of growth: maximal OD630 over 24 hr divided by maximal OD of control (control = 1) ([2]; 25 μmol/ml): 0.8368 | extent of growth: maximal OD630 over 24 hr divided by maximal OD of control (control = 1) ([3]; 5 μmol/ml): 1.1488 | extent of growth: maximal OD630 over 24 hr divided by maximal OD of control (control = 1) ([3]; 10 μmol/ml): 1.1312 | extent of growth: maximal OD630 over 24 hr divided by maximal OD of control (control = 1) ([3]; 20 μmol/ml): 1.0407 | extent of growth: maximal OD630 over 24 hr divided by maximal OD of control (control = 1) ([3]; 25 μmol/ml): 0.9664 | extent of growth: maximal OD630 over 24 hr divided by maximal OD of control (control = 1) ([4]; 5 μmol/ml): 1.4244 | extent of growth: maximal OD630 over 24 hr divided by maximal OD of control (control = 1) ([4]; 10 μmol/ml): 1.4274 | extent of growth: maximal OD630 over 24 hr divided by maximal OD of control (control = 1) ([4]; 20 μmol/ml): 1.3589 | extent of growth: maximal OD630 over 24 hr divided by maximal OD of control (control = 1) ([4]; 25 μmol/ml): 1.2710 | extent of growth: maximal OD630 over 24 hr divided by maximal OD of control (control = 1) ([5]; 5 μmol/ml): 0.3631 | extent of growth: maximal OD630 over 24 hr divided by maximal OD of control (control = 1) ([5]; 10 μmol/ml): 0.3079 | extent of growth: maximal OD630 over 24 hr divided by maximal OD of control (control = 1) ([5]; 20 μmol/ml): 0.2558 | extent of growth: maximal OD630 over 24 hr divided by maximal OD of control (control = 1) ([5]; 25 μmol/ml): 0.2348 | extent of growth: maximal OD630 over 24 hr divided by maximal OD of control (control = 1) ([6]; 5 μmol/ml): 1.0397 | extent of growth: maximal OD630 over 24 hr divided by maximal OD of control (control = 1) ([6]; 10 μmol/ml): 1.0491 | extent of growth: maximal OD630 over 24 hr divided by maximal OD of control (control = 1) ([6]; 20 μmol/ml): 1.0248 | extent of growth: maximal OD630 over 24 hr divided by maximal OD of control (control = 1) ([6]; 25 μmol/ml): 1.0226 | extent of growth: maximal OD630 over 24 hr divided by maximal OD of control (control = 1) ([7]; 5 μmol/ml): 0.9568 | extent of growth: maximal OD630 over 24 hr divided by maximal OD of control (control = 1) ([7]; 10 μmol/ml): 0.9629 | extent of growth: maximal OD630 over 24 hr divided by maximal OD of control (control = 1) ([7]; 20 μmol/ml): 0.9558 | extent of growth: maximal OD630 over 24 hr divided by maximal OD of control (control = 1) ([7]; 25 μmol/ml): 0.9630 | extent of growth: maximal OD630 over 24 hr divided by maximal OD of control (control = 1) ([8]; 5 μmol/ml): 0.9385 | extent of growth: maximal OD630 over 24 hr divided by maximal OD of control (control = 1) ([8]; 10 μmol/ml): 0.9601 | extent of growth: maximal OD630 over 24 hr divided by maximal OD of control (control = 1) ([8]; 20 μmol/ml): 0.9183 | extent of growth: maximal OD630 over 24 hr divided by maximal OD of control (control = 1) ([8]; 25 μmol/ml): 0.9574 | extent of growth: maximal OD630 over 24 hr divided by maximal OD of control (control = 1) ([9]; 5 μmol/ml): 1.0000 | extent of growth: maximal OD630 over 24 hr divided by maximal OD of control (control = 1) ([9]; 10 μmol/ml): 0.9980 | extent of growth: maximal OD630 over 24 hr divided by maximal OD of control (control = 1) ([9]; 20 μmol/ml): 0.9904 | extent of growth: maximal OD630 over 24 hr divided by maximal OD of control (control = 1) ([9]; 25 μmol/ml): 1.0049 | extent of growth: maximal OD630 over 24 hr divided by maximal OD of control (control = 1) ([10]; 5 μmol/ml): 0.9483 | extent of growth: maximal OD630 over 24 hr divided by maximal OD of control (control = 1) ([10]; 10 μmol/ml): 0.9662 | extent of growth: maximal OD630 over 24 hr divided by maximal OD of control (control = 1) ([10]; 20 μmol/ml): 0.9401 | extent of growth: maximal OD630 over 24 hr divided by maximal OD of control (control = 1) ([10]; 25 μmol/ml): 0.9445 | extent of growth: maximal OD630 over 24 hr divided by maximal OD of control (control = 1) ([11]; 5 μmol/ml): 0.9443 | extent of growth: maximal OD630 over 24 hr divided by maximal OD of control (control = 1) ([11]; 10 μmol/ml): 0.9445 | extent of growth: maximal OD630 over 24 hr divided by maximal OD of control (control = 1) ([11]; 20 μmol/ml): 0.9299 | extent of growth: maximal OD630 over 24 hr divided by maximal OD of control (control = 1) ([11]; 25 μmol/ml): 0.9298 | extent of growth: maximal OD630 over 24 hr divided by maximal OD of control (control = 1) ([12]; 5 μmol/ml): 1.0547 | extent of growth: maximal OD630 over 24 hr divided by maximal OD of control (control = 1) ([12]; 10 μmol/ml): 0.9829 | extent of growth: maximal OD630 over 24 hr divided by maximal OD of control (control = 1) ([12]; 20 μmol/ml): 0.9244 | extent of growth: maximal OD630 over 24 hr divided by maximal OD of control (control = 1) ([12]; 25 μmol/ml): 0.9121 | extent of growth: maximal OD630 over 24 hr divided by maximal OD of control (control = 1) ([13]; 5 μmol/ml): 0.9281 | extent of growth: maximal OD630 over 24 hr divided by maximal OD of control (control = 1) ([13]; 10 μmol/ml): 0.9561 | extent of growth: maximal OD630 over 24 hr divided by maximal OD of control (control = 1) ([13]; 20 μmol/ml): 0.9443 | extent of growth: maximal OD630 over 24 hr divided by maximal OD of control (control = 1) ([13]; 25 μmol/ml): 0.9441 | extent of growth: maximal OD630 over 24 hr divided by maximal OD of control (control = 1) ([14]; 5 μmol/ml): 1.1731 | extent of growth: maximal OD630 over 24 hr divided by maximal OD of control (control = 1) ([14]; 10 μmol/ml): 1.1323 | extent of growth: maximal OD630 over 24 hr divided by maximal OD of control (control = 1) ([14]; 20 μmol/ml): 1.0466 | extent of growth: maximal OD630 over 24 hr divided by maximal OD of control (control = 1) ([14]; 25 μmol/ml): 1.0760 | extent of growth: maximal OD630 over 24 hr divided by maximal OD of control (control = 1) ([15]; 5 μmol/ml): 0.8399 | extent of growth: maximal OD630 over 24 hr divided by maximal OD of control (control = 1) ([15]; 10 μmol/ml): 0.8356 | extent of growth: maximal OD630 over 24 hr divided by maximal OD of control (control = 1) ([15]; 20 μmol/ml): 0.8262 | extent of growth: maximal OD630 over 24 hr divided by maximal OD of control (control = 1) ([15]; 25 μmol/ml): 0.7991
